In ChEMBL document CHEMBL1139415, “Highly functionalized 7-azaindoles as selective PPAR gamma modulators” (Bioorg Med Chem Lett, 2008):

What was measured:
[1] = target: Thromboxane A2 receptor (Homo sapiens) (UniProt P21731); experiment: Inhibition of TXA2 receptor at 10 uM
[2] = target: T1, Peroxisome proliferator-activated receptor gamma (Homo sapiens, UniProt P37231); experiment: Displacement of [3H]2AD-5075 from GST-tagged human PPARgamma receptor expressed in Escherichia coli BL21
T1 sequence (P37231 whole entry): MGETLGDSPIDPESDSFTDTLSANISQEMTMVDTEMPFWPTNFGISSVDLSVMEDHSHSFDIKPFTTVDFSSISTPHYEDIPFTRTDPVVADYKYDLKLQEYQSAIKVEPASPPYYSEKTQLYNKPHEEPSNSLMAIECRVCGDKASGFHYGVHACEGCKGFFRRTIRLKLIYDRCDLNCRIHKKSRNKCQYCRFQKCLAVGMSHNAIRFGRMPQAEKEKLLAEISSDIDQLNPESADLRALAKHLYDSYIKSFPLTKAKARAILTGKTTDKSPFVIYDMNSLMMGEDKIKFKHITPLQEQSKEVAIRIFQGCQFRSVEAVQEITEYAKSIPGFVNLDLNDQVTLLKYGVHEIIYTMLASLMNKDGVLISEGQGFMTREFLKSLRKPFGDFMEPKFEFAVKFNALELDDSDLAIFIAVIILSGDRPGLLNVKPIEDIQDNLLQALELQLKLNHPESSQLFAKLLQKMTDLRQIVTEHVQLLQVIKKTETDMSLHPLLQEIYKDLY

[3] = target: T1, Peroxisome proliferator-activated receptor gamma; experiment: Agonist activity at human PPARgamma receptor expressed in african green monkey COS cells after 48 hrs by GAL4 transactivation assay; assay type: functional, cell-based
[4] = Clearance in Sprague-Dawley rat at 0.5 mg, iv and 2.0 mg, po; assay type: ADME, organism-based; conditions: in vivo
[5] = Half life in Sprague-Dawley rat at 0.5 mg, iv and 2.0 mg, po; assay type: ADME, organism-based; conditions: in vivo
[6] = Bioavailability in Sprague-Dawley rat at 0.5 mg, iv and 2.0 mg, po; assay type: ADME, organism-based; conditions: in vivo
[7] = target: T2, Peroxisome proliferator-activated receptor alpha (Homo sapiens, UniProt Q07869); experiment: Binding affinity to human PPARalpha
T2 sequence (Q07869 whole entry): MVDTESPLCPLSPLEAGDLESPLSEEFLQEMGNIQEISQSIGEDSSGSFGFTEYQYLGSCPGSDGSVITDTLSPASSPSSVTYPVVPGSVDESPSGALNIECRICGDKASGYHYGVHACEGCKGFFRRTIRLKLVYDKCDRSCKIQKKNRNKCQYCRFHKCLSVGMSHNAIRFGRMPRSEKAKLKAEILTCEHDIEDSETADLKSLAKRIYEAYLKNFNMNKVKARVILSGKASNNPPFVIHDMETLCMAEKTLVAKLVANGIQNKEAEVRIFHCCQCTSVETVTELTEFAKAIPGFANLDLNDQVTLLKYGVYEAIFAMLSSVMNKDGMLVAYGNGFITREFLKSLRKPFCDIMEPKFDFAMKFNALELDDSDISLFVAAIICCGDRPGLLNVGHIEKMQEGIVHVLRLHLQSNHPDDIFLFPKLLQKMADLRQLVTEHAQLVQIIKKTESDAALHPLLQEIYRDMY

[8] = target: T3, Peroxisome proliferator-activated receptor delta (Homo sapiens, UniProt Q03181); experiment: Binding affinity to PPARdelta
T3 sequence (Q03181 whole entry): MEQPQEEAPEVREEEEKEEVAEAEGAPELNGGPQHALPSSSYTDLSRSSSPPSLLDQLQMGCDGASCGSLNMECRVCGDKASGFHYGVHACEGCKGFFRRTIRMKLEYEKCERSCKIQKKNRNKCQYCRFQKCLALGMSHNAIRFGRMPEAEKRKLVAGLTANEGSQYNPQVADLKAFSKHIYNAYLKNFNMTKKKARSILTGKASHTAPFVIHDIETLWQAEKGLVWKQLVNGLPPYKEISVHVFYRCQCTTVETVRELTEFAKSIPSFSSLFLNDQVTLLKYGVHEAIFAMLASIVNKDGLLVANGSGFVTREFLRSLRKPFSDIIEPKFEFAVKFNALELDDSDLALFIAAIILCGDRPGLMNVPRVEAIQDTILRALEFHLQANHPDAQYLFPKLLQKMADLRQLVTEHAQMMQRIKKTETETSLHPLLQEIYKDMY

[9] = system: Mus musculus; experiment: Antiglycemic activity in db/db mouse assessed as glucose correction at 20 mg/kg, po administered daily for 11 days; assay type: functional
[10] = target: Cytochrome P450 3A4 (Homo sapiens, UniProt P08684); experiment: Inhibition of CYP3A4; assay type: ADME
[11] = system: Mus musculus; experiment: Antiglycemic activity in db/db mouse assessed as glucose correction at 10 mg/kg, po administered daily for 11 days; assay type: functional
[12] = target: Polyunsaturated fatty acid 5-lipoxygenase (Homo sapiens, UniProt P09917); experiment: Inhibition of 5-Lipoxygenase
[13] = Inhibition of PDE2
[14] = Inhibition of PDE3
[15] = target: Prostaglandin D2 receptor (Homo sapiens, UniProt Q13258); experiment: Inhibition of prostanoid DP receptor
Chain of Prostaglandin D2 receptor (Q13258 whole entry): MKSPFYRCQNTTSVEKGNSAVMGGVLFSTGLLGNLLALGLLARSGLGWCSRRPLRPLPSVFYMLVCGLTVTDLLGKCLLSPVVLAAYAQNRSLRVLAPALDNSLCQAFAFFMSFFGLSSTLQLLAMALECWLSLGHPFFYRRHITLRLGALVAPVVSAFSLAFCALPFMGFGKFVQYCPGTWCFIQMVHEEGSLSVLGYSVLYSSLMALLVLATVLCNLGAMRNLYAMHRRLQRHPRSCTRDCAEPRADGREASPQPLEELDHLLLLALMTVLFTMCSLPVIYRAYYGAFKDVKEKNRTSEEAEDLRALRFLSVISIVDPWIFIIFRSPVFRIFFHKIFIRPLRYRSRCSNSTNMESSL

[16] = target: Prostaglandin E2 receptor EP3 subtype (Homo sapiens, UniProt P43115); experiment: Inhibition of prostanoid EP3 receptor
[17] = target: Prostaglandin E2 receptor EP4 subtype (Homo sapiens, UniProt P35408); experiment: Inhibition of prostanoid EP4 receptor
[18] = target: Prostaglandin F2-alpha receptor (Homo sapiens, UniProt P43088); experiment: Inhibition of prostanoid FP receptor
[19] = target: Prostacyclin receptor (Homo sapiens, UniProt P43119); experiment: Inhibition of prostanoid IP receptor
[20] = target: Alpha-2A adrenergic receptor (Homo sapiens, UniProt P08913); experiment: Displacement of radioligand from adrenergic alpha2A receptor
Chain of Alpha-2A adrenergic receptor (P08913 whole entry): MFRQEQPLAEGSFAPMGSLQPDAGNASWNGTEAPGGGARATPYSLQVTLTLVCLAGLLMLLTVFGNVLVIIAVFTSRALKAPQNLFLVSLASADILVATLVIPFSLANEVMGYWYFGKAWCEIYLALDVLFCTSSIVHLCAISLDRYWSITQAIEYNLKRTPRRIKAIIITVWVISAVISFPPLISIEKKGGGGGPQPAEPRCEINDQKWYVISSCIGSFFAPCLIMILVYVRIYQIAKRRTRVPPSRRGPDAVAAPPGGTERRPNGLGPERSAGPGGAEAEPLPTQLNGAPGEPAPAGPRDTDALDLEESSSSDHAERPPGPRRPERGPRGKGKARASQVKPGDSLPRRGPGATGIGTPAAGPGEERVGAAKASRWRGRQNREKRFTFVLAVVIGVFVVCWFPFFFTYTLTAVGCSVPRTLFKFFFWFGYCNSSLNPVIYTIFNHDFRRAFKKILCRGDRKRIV

[21] = target: Alpha-2B adrenergic receptor (Homo sapiens, UniProt P18089); experiment: Displacement of radioligand from adrenergic alpha2B receptor
[22] = target: Beta-1 adrenergic receptor (Homo sapiens, UniProt P08588); experiment: Displacement of radioligand from adrenergic beta-1 receptor
[23] = target: Beta-3 adrenergic receptor (Homo sapiens, UniProt P13945); experiment: Displacement of radioligand from adrenergic beta3 receptor
Chain of Beta-3 adrenergic receptor (P13945 whole entry): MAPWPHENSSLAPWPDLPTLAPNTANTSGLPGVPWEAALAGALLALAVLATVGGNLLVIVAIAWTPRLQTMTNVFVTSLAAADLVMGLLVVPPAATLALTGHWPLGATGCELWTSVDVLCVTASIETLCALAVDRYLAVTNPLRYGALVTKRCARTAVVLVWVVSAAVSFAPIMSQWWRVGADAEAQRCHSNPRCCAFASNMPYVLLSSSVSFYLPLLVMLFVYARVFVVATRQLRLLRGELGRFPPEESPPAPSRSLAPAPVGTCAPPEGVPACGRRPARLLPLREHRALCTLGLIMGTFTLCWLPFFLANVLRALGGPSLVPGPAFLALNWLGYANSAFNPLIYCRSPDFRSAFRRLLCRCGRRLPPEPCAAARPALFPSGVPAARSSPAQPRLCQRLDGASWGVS

[24] = target: Sodium-dependent noradrenaline transporter (Homo sapiens, UniProt P23975); experiment: Displacement of radioligand from NET
[25] = target: D(1A) dopamine receptor (Homo sapiens, UniProt P21728); experiment: Displacement of radioligand from dopamine D1 receptor
Chain of D(1A) dopamine receptor (P21728 whole entry): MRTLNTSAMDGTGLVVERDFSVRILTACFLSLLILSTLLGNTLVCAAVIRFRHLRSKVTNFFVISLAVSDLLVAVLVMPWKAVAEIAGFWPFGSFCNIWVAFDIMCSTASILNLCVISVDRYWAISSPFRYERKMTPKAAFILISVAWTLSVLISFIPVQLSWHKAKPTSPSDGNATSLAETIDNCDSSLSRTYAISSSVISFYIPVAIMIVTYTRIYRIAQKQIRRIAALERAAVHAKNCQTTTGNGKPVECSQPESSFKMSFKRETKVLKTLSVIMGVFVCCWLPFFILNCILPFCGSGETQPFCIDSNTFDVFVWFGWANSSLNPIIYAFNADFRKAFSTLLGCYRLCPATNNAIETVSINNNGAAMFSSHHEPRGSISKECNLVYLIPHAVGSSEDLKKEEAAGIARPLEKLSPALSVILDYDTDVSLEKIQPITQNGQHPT

[26] = target: D(2) dopamine receptor (Homo sapiens, UniProt P14416); experiment: Displacement of radioligand from dopamine D2S receptor
Chain of D(2) dopamine receptor (P14416 whole entry): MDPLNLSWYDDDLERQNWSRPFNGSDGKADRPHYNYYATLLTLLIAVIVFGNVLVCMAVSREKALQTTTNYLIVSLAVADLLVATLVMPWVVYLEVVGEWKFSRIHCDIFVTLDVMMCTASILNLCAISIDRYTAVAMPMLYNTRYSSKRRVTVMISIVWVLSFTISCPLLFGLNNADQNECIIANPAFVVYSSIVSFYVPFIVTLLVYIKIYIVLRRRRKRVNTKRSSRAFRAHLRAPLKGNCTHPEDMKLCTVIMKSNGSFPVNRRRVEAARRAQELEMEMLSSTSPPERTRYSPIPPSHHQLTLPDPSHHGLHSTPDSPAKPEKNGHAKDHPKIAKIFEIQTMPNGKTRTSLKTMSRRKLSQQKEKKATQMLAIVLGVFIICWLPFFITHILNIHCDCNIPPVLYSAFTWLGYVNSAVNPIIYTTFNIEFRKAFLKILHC

[27] = target: D(3) dopamine receptor (Homo sapiens, UniProt P35462); experiment: Displacement of radioligand from dopamine D3 receptor
[28] = target: Sodium-dependent dopamine transporter (Homo sapiens, UniProt Q01959); experiment: Displacement of radioligand from DAT
[29] = target: Muscarinic acetylcholine receptor M3 (Homo sapiens, UniProt P20309); experiment: Displacement of radioligand from muscarinic M3 receptor
Chain of Muscarinic acetylcholine receptor M3 (P20309 whole entry): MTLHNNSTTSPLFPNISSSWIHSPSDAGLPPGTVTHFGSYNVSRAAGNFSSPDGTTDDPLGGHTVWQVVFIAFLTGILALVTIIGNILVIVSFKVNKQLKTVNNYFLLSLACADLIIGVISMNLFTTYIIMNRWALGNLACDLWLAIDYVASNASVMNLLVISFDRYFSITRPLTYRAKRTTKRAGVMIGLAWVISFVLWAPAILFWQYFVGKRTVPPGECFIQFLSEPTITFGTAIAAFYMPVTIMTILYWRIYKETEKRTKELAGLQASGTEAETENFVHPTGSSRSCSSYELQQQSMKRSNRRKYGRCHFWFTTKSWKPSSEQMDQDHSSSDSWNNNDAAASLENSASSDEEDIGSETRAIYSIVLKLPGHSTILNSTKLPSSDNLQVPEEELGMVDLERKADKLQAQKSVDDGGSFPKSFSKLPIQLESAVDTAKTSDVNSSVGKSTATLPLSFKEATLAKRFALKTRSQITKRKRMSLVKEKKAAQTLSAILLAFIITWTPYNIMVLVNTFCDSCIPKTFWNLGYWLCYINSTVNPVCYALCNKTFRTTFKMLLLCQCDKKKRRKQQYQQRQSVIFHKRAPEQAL

[30] = target: Muscarinic acetylcholine receptor M4 (Homo sapiens, UniProt P08173); experiment: Displacement of radioligand from muscarinic M4 receptor
Chain of Muscarinic acetylcholine receptor M4 (P08173 whole entry): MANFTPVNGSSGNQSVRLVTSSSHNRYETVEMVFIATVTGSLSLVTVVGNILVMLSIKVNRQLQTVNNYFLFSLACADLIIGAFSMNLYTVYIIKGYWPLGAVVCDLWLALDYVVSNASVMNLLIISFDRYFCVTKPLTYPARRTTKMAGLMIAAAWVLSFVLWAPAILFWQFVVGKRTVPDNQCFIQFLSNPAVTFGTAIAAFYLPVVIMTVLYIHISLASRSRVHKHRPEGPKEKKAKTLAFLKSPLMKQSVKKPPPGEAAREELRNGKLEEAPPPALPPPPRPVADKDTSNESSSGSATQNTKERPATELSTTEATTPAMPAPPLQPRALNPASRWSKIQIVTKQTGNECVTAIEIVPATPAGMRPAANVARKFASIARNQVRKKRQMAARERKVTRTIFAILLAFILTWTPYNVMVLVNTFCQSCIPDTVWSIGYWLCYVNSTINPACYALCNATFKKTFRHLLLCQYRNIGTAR

[31] = target: Delta-type opioid receptor (Homo sapiens, UniProt P41143); experiment: Displacement of radioligand from delta opioid receptor
Chain of Delta-type opioid receptor (P41143 whole entry): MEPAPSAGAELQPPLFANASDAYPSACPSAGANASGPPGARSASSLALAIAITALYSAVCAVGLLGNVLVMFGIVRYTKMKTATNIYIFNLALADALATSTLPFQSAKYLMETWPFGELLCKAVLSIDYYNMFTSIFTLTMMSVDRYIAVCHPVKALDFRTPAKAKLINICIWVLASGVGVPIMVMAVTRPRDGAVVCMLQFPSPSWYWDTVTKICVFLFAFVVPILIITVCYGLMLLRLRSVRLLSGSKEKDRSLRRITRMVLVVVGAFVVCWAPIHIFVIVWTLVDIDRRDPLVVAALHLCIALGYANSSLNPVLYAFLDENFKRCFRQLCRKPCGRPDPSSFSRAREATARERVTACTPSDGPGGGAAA

[32] = target: Kappa-type opioid receptor (Homo sapiens, UniProt P41145); experiment: Displacement of radioligand from kappa opioid receptor
Chain of Kappa-type opioid receptor (P41145 whole entry): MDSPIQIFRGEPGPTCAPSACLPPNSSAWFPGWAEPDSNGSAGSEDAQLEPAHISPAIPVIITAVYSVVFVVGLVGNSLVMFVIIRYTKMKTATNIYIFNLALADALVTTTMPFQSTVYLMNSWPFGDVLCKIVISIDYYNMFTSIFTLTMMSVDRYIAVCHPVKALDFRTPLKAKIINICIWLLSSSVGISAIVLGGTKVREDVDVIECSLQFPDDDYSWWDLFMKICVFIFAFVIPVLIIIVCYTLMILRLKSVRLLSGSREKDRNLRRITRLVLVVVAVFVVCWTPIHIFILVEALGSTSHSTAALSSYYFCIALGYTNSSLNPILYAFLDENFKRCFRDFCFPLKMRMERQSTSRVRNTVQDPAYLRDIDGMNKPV

[33] = target: Mu-type opioid receptor (Homo sapiens, UniProt P35372); experiment: Displacement of radioligand from mu opioid receptor
[34] = target: 5-hydroxytryptamine receptor 2B (Homo sapiens, UniProt P41595); experiment: Displacement of radioligand from 5HT2B receptor
Chain of 5-hydroxytryptamine receptor 2B (P41595 whole entry): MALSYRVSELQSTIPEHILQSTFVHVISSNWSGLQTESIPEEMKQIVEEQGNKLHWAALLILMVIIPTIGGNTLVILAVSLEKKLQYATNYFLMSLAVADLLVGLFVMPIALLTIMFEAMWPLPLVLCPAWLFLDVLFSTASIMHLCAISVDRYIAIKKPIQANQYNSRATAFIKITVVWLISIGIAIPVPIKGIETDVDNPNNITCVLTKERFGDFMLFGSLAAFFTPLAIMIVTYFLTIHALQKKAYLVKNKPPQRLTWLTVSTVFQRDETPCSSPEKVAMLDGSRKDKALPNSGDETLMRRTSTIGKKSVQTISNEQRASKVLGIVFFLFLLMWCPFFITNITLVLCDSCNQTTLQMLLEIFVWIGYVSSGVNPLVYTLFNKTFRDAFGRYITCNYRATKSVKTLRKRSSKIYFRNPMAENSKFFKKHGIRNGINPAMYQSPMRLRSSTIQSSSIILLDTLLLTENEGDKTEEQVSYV

[35] = target: Sodium-dependent serotonin transporter (Homo sapiens, UniProt P31645); experiment: Displacement of radioligand from SERT
[36] = target: Substance-K receptor (Homo sapiens, UniProt P21452); experiment: Displacement of radioligand from tachykinin NK2 receptor
Chain of Substance-K receptor (P21452 whole entry): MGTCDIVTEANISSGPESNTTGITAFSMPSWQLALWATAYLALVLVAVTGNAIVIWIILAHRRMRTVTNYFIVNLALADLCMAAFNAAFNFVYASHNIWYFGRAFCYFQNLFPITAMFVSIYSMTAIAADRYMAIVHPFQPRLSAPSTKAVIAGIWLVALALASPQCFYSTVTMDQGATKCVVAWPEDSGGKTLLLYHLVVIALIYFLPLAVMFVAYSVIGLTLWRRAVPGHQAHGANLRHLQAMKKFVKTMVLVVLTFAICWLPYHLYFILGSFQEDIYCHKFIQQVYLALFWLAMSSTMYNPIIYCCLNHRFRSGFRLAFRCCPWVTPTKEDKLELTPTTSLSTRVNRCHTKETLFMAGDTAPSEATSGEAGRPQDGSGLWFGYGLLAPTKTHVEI

[37] = target: Thromboxane A2 receptor (Homo sapiens, UniProt P21731); experiment: Displacement of radioligand from TXA2 receptor
[38] = target: Cytochrome P450 2C9 (Homo sapiens, UniProt P11712); experiment: Inhibition of CYP2C9; assay type: ADME
[39] = system: Mus musculus; experiment: Antiglycemic activity in db/db mouse assessed as glucose correction at 50 mg/kg, po administered daily for 11 days; assay type: functional

Compound: COc1ccc(C(=O)c2c(C)n(Cc3cc(O[C@@H](C)C(=O)O)ccc3F)c3ncccc23)cc1
- inhibition [1]: 64%
- IC50 [2]: 5 nM
- EC50 [3]: 3 nM
- clearance [4]: 31.7 mL/min/kg
- half-life [5]: 1.8 h
- bioavailability [6]: 51%
- IC50 [7]: > 50000 nM
- IC50 [8]: > 50000 nM
- Activity [9]: 44%

Compound: COc1ccc(C(=O)c2c(C)n(Cc3cccc(O[C@@H](C)C(=O)O)c3)c3ncccc23)cc1
- IC50 [10]: > 100000 nM
- IC50 [2]: 66 nM
- EC50 [3]: 27 nM
- clearance [4]: 115 mL/min/kg
- half-life [5]: 2 h
- bioavailability [6]: 29%
- IC50 [7]: > 50000 nM
- IC50 [8]: > 50000 nM
- Activity [11]: 29%

Compound: Cc1c(C(=O)c2ccc(Cl)cc2)c2ccc(OC(F)(F)F)cc2n1Cc1cccc(O[C@H](C)C(=O)O)c1
- IC50 [12]: 1640 nM
- IC50 [13]: 29100 nM
- IC50 [14]: 22500 nM
- IC50 [15]: 8450 nM
- IC50 [16]: 1220 nM
- IC50 [17]: 3700 nM
- IC50 [18]: 2730 nM
- IC50 [19]: 6340 nM
- IC50 [20]: 1650 nM
- IC50 [21]: 770 nM
- IC50 [22]: 4070 nM
- IC50 [23]: 4860 nM
- IC50 [24]: 2160 nM
- IC50 [25]: 1530 nM
- IC50 [26]: 3550 nM
- IC50 [27]: 837 nM
- IC50 [28]: 3410 nM
- IC50 [29]: 1560 nM
- IC50 [30]: 1340 nM
- IC50 [31]: 1690 nM
- IC50 [32]: 3480 nM
- IC50 [33]: 1860 nM
- IC50 [34]: 1140 nM
- IC50 [35]: 970 nM
- IC50 [36]: 530 nM
- IC50 [37]: 2030 nM

Compound: Cc1c(C(=O)c2ccc(Cl)cc2)c2ccc(OC(F)(F)F)cc2n1Cc1cccc(O[C@@H](C)C(=O)O)c1
- IC50 [38]: 5600 nM
- IC50 [2]: 1 nM
- EC50 [3]: 1 nM
- clearance [4]: 21.7 mL/min/kg
- half-life [5]: 1.5 h
- bioavailability [6]: 45%

Compound: Cc1c(Oc2ccc(Cl)cc2)c2ccc(C(F)(F)F)nc2n1Cc1ccc(Cl)c(O[C@@H](C)C(=O)O)c1
- IC50 [2]: 22 nM
- EC50 [3]: 23 nM
- clearance [4]: 12.4 mL/min/kg
- half-life [5]: 1.9 h
- bioavailability [6]: 61%
- IC50 [7]: > 50000 nM
- IC50 [8]: > 50000 nM
- Activity [9]: 18%
- Activity [39]: 56%
